Measured values published in patent US7417030B2, “Indazole peptidomimetics as thrombin receptor antagonists” (Ortho-McNeil Pharmaceutical, Inc., priority 1999, dated 2008).

How the values were obtained:
[1] = system: platelet aggregation stimulated by thrombin (gel-filtered platelets); test: In vitro inhibition of thrombin-induced gel-filtered platelet aggregation assay; format: cell-based; conditions: thrombin-induced gel-filtered human platelet aggregation; agonist thrombin 50 μL of 1 unit/mL; read-out: IC50 (μM) Thr GFP Aggr
Protocol: In Vitro Inhibition Of Thrombin-Induced Gel-Filtered Platelet Aggregation Assay
The percentage of platelet aggregation is calculated as an increase in light transmission of compound-treated platelet concentrate vs. control-treated platelet concentrate. Human blood is obtained from drug free, normal donors in tubes containing 0.13M sodium citrate. Platelet rich plasma (PRP) is collected by centrifugation of whole blood at 200×g for 10 min at 25° C. The PRP (5 mL) is gel filtered through Sepharose 2B (bed volume 50 mL), and the platelet count is adjusted to 2×10^7 platelets per sample. The following constituents are added to a siliconized cuvette: concentrated platelet filtrate and Tyrode's buffer (0.14M NaCl, 0.0027M KCl, 0.012M NaHCO3, 0.76 mM Na2HPO4, 0.0055M glucose, 2 mg/mL BSA and 5.0 mM HEPES @ pH 7.4) in an amount equal to 350 μL, 50 μL of 20 mM calcium and 50 μL of the test compound. Aggregation is monitored in a BIODATA aggregometer for the 3 min following the addition of agonist (thrombin 50 μL of 1 unit/mL).

[2] = target: T1, Thrombin receptor (PAR-1) (Homo sapiens, UniProt P25116); test: In vitro thrombin receptor binding assay; conditions: CHRF membranes; tritiated 721-40 (Ser-pFPhe-Har-Leu-Har-Lys-Tyr-NH2) radioligand; read-out: IC50 (μM) Thr Recptr Bdg
T1 construct: CHRF membranes (Jones, Biochim. Biophys. Acta 1992, 1136, 272) are thawed from −70° C; endogenous in cells; host or cells: CHRF cell membranes
T1 sequence (P25116 22-425): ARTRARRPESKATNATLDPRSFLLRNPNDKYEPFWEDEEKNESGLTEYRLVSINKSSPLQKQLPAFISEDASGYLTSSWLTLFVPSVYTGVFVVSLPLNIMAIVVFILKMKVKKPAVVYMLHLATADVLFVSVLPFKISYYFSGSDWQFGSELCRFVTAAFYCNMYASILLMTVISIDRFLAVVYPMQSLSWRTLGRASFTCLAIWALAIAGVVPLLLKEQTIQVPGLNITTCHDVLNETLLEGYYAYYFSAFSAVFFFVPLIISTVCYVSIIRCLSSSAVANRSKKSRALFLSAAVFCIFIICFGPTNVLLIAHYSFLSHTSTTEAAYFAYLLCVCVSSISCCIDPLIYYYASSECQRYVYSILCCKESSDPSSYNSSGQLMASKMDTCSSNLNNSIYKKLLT
Protocol: In Vitro Thrombin Receptor Binding Assay
CHRF membranes (Jones, Biochim. Biophys. Acta 1992, 1136, 272) are thawed from −70° C., centrifuged at maximum speed for 5 min, washed twice with binding buffer (50 mM HEPES containing 5 mM MgCl2 and 0.1% BSA), and re-suspended in binding buffer (25 μg/[…]). 100 μL of membranes are added to the 24-Wallac plates and delivered to the Tomtech apparatus. In a typical experiment, 6 μL of samples (from a 125 μg/mL intermediary plate, 20% DMSO) and 44 μL buffer are delivered to the plates (final conc. of compounds is 3.7 μg/mL, 0.6% DMSO). Similarly, 6 μL 20% DMSO and 44 μL buffer are delivered to both column 1 (NSB) and column 12 (TB). […] Ser-pFPhe-Har-Leu-Har-Lys-Tyr-NH2 (SEQ. ID. No. 2) (721-40; 500 μM in deionized water) is added to column 1. 50 μL tritiated 721-40 (specific activity 46 Ci/mmol) is added to all the wells. The plates are mixed well for 20 seconds, incubated for 30 min, and then harvested with 10 mM HEPES/138 mM NaCl using the Skatron harvester. The filters (GF/C Brandel FPXLR 296) are presoaked 3 h in 0.5% polyethylenimine in HEPES/0.1M N-acetylglucosamine) are set in Saran™ wrap and dried for 3 min in the microwave, and placed in sample bags (Wallac 1450-432). 4.5 mL scintillation fluid (Wallac, Betaplate Scint 1205-440) is added. The bags are sealed, placed in filter cassettes (Wallac 1450-104), and analyzed on the microbeta counter.

Compound	IC50 [1]	IC50 [2]
NCCNC(=O)[C@H](Cc1ccncc1)NC(=O)[C@H](Cc1ccc(F)c(F)c1)NC(=O)Nc1ccc2c(CN3CCCC3)nn(Cc3c(Cl)cccc3Cl)c2c1 [Compound 3, L-Alaninamide, 3,4-difluoro-N-[[[1-[(2,6-dichlorophenyl)methyl]-3-(1-pyrrolidinylmethyl)-1H-indazol-6-yl]amino]carbonyl]-L-phenylalanyl-N-(2-aminoethyl)-3-(4-pyridinyl)-]	0.5 µM	0.03 µM
NCC[C@H](NC(=O)[C@H](Cc1ccc(F)c(F)c1)NC(=O)Nc1ccc2c(CN3CCCC3)nn(Cc3c(Cl)cccc3Cl)c2c1)C(=O)N[C@H](CO)c1ccccc1 [Compound 5]	0.66 µM	0.32 µM
NCC[C@H](NC(=O)[C@H](Cc1ccc(Cl)cc1)NC(=O)Nc1ccc2c(CN3CCCC3)nn(Cc3c(Cl)cccc3Cl)c2c1)C(=O)NCc1ccccc1 [Compound 2, Benzenepropanamide, N-[(1S)-3-amino-1-[[(phenylmethyl)amino]carbonyl]propyl]-α-[[[[[1-(2,6-dichlorophenyl)methyl]-3-(1-pyrrolidinylmethyl)-1H-indazol-6-yl]amino]carbonyl]amino]-4-chloro-, (αS)-]	0.26 µM	20 µM
C[C@@H](NC(=O)[C@H](CCN)NC(=O)[C@H](Cc1ccc(F)c(F)c1)NC(=O)Nc1ccc2c(CN3CCCC3)nn(Cc3c(Cl)cccc3Cl)c2c1)c1ccccc1 [Compound 4]	0.32 µM	0.15 µM
NCCNC(=O)[C@H](Cc1cccs1)NC(=O)[C@H](Cc1ccc(Cl)cc1)NC(=O)Nc1ccc2c(CN3CCCC3)nn(Cc3c(Cl)cccc3Cl)c2c1 [Compound 6]	0.3 µM	5.8 µM
NCC[C@H](NC(=O)[C@H](Cc1ccc(F)c(F)c1)NC(=O)Nc1ccc2c(CN3CCCC3)nn(Cc3c(Cl)cccc3Cl)c2c1)C(=O)NCc1ccccc1 [Compound 1, Benzenepropanamide, N-[(1S)-3-amino-1-[[(phenylmethyl)amino]carbonyl]propyl]-α-[[[[[1-(2,6-dichlorophenyl)methyl]-3-(1-pyrrolidinylmethyl)-1H-indazol-6-yl]amino]carbonyl]amino]-3,4-difluoro-,(αS)-]	0.31 µM	0.04 µM
